In PubChem BioAssay (NCI):
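48-hour exposure; five concentrations; linearly interpolated endpoints. Abbreviation: GI50, concentration required for 50% inhibition of growth. Definition used: TGI = concentration required for complete inhibition of growth.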

What was measured:
Assay in all cases: DTP human tumour cell line panel, 48 h
786-0 renal = test system: 786-0 renal
A549 NSCLC = test system: A549 NSCLC
ACHN renal = test system: ACHN renal
BT-549 breast = test system: BT-549 breast
CAKI-1 renal = test system: CAKI-1 renal
CCRF-CEM leukemia = test system: CCRF-CEM leukemia
COLO 205 colon = test system: COLO 205 colon
DU-145 prostate = test system: DU-145 prostate
EKVX NSCLC = test system: EKVX NSCLC
HCC-2998 colon = test system: HCC-2998 colon
HCT-116 colon = test system: HCT-116 colon
HCT-15 colon = test system: HCT-15 colon
HL-60(TB) leukemia = test system: HL-60(TB) leukemia
HOP-62 NSCLC = test system: HOP-62 NSCLC
HOP-92 NSCLC = test system: HOP-92 NSCLC
HS 578T breast = test system: HS 578T breast
HT29 colon = test system: HT29 colon
IGROV1 ovarian = test system: IGROV1 ovarian
K-562 leukemia = test system: K-562 leukemia
KM12 colon = test system: KM12 colon
LOX IMVI melanoma = test system: LOX IMVI melanoma
M14 melanoma = test system: M14 melanoma
MALME-3M melanoma = test system: MALME-3M melanoma
MCF7 breast = test system: MCF7 breast
MDA-MB-231 breast = test system: MDA-MB-231 breast
MDA-MB-435 = test system: MDA-MB-435
MOLT-4 leukemia = test system: MOLT-4 leukemia
NCI-H226 lung = test system: NCI-H226 lung
NCI-H23 lung = test system: NCI-H23 lung
NCI-H460 lung = test system: NCI-H460 lung
NCI-H522 lung = test system: NCI-H522 lung
NCI/ADR-RES ovarian = test system: NCI/ADR-RES ovarian
OVCAR-3 ovarian = test system: OVCAR-3 ovarian
OVCAR-4 ovarian = test system: OVCAR-4 ovarian
OVCAR-5 ovarian = test system: OVCAR-5 ovarian
OVCAR-8 ovarian = test system: OVCAR-8 ovarian
PC-3 prostate = test system: PC-3 prostate
RPMI-8226 leukemia = test system: RPMI-8226 leukemia
RXF 393 renal = test system: RXF 393 renal
SF-268 CNS = test system: SF-268 CNS
SF-295 CNS = test system: SF-295 CNS
SF-539 CNS = test system: SF-539 CNS
SK-MEL-2 melanoma = test system: SK-MEL-2 melanoma
SK-MEL-28 melanoma = test system: SK-MEL-28 melanoma
SK-MEL-5 melanoma = test system: SK-MEL-5 melanoma
SK-OV-3 ovarian = test system: SK-OV-3 ovarian
SN12C renal = test system: SN12C renal
SNB-19 CNS = test system: SNB-19 CNS
SNB-75 CNS = test system: SNB-75 CNS
SR leukemia = test system: SR leukemia
SW-620 colon = test system: SW-620 colon
T-47D breast = test system: T-47D breast
TK-10 renal = test system: TK-10 renal
U251 CNS = test system: U251 CNS
UACC-257 melanoma = test system: UACC-257 melanoma
UACC-62 melanoma = test system: UACC-62 melanoma
UO-31 renal = test system: UO-31 renal

Clc1ccc2c(c1)-c1ccccc1C1=NCCN12
GI50 (786-0 renal): 1.66 µM
TGI (786-0 renal): 3.52 µM
GI50 (A549 NSCLC): 1.53 µM
TGI (A549 NSCLC): 3.77 µM
GI50 (ACHN renal): 1.12 µM
TGI (ACHN renal): 9.3 µM
GI50 (BT-549 breast): 2.41 µM
TGI (BT-549 breast): 9.89 µM
GI50 (CAKI-1 renal): 1.83 µM
TGI (CAKI-1 renal): 5.8 µM
GI50 (CCRF-CEM leukemia): 1.7 µM
TGI (CCRF-CEM leukemia): 4.08 µM
GI50 (COLO 205 colon): 1.61 µM
TGI (COLO 205 colon): 3.54 µM
GI50 (DU-145 prostate): 2.02 µM
TGI (DU-145 prostate): 4.62 µM
GI50 (EKVX NSCLC): 2.25 µM
TGI (EKVX NSCLC): 9.09 µM
GI50 (HCC-2998 colon): 1.87 µM
TGI (HCC-2998 colon): 3.76 µM
GI50 (HCT-116 colon): 0.719 µM
TGI (HCT-116 colon): 6.86 µM
GI50 (HCT-15 colon): 2.71 µM
TGI (HCT-15 colon): 9.62 µM
GI50 (HL-60(TB) leukemia): 2.43 µM
TGI (HL-60(TB) leukemia): 5.47 µM
GI50 (HOP-62 NSCLC): 1.98 µM
TGI (HOP-62 NSCLC): 6.02 µM
GI50 (HOP-92 NSCLC): 1.19 µM
TGI (HOP-92 NSCLC): 3.29 µM
GI50 (HS 578T breast): 2.92 µM
TGI (HS 578T breast): 11.8 µM
GI50 (HT29 colon): 1.17 µM
TGI (HT29 colon): 3.6 µM
GI50 (IGROV1 ovarian): 2.14 µM
TGI (IGROV1 ovarian): 5.36 µM
GI50 (K-562 leukemia): 2.2 µM
TGI (K-562 leukemia): 7.61 µM
GI50 (KM12 colon): 2.56 µM
TGI (KM12 colon): 7.79 µM
GI50 (LOX IMVI melanoma): 1.59 µM
TGI (LOX IMVI melanoma): 3.65 µM
GI50 (M14 melanoma): 1.56 µM
TGI (M14 melanoma): 3.07 µM
GI50 (MALME-3M melanoma): 1.77 µM
TGI (MALME-3M melanoma): 4.17 µM
GI50 (MCF7 breast): 2.18 µM
TGI (MCF7 breast): 8.58 µM
GI50 (MDA-MB-231 breast): 2.69 µM
TGI (MDA-MB-231 breast): 12.4 µM
GI50 (MDA-MB-435): 2.04 µM
TGI (MDA-MB-435): 5.76 µM
GI50 (MOLT-4 leukemia): 1.01 µM
TGI (MOLT-4 leukemia): 3.11 µM
GI50 (NCI-H226 lung): 1.45 µM
TGI (NCI-H226 lung): 3.53 µM
GI50 (NCI-H23 lung): 1.85 µM
TGI (NCI-H23 lung): 4.75 µM
GI50 (NCI-H460 lung): 1.49 µM
TGI (NCI-H460 lung): 4.51 µM
GI50 (NCI-H522 lung): 1.52 µM
TGI (NCI-H522 lung): 3.48 µM
GI50 (NCI/ADR-RES ovarian): 1.6 µM
TGI (NCI/ADR-RES ovarian): 4.8 µM
GI50 (OVCAR-3 ovarian): 2.3 µM
TGI (OVCAR-3 ovarian): 6.16 µM
GI50 (OVCAR-4 ovarian): 1.99 µM
TGI (OVCAR-4 ovarian): 7.35 µM
GI50 (OVCAR-5 ovarian): 2.68 µM
TGI (OVCAR-5 ovarian): 13.4 µM
GI50 (OVCAR-8 ovarian): 1.22 µM
TGI (OVCAR-8 ovarian): 5.4 µM
GI50 (PC-3 prostate): 2.03 µM
TGI (PC-3 prostate): 6.83 µM
GI50 (RPMI-8226 leukemia): 1.91 µM
TGI (RPMI-8226 leukemia): 4.36 µM
GI50 (RXF 393 renal): 1.51 µM
TGI (RXF 393 renal): 2.98 µM
GI50 (SF-268 CNS): 1.91 µM
TGI (SF-268 CNS): 5.42 µM
GI50 (SF-295 CNS): 2.12 µM
TGI (SF-295 CNS): 6.34 µM
GI50 (SF-539 CNS): 3 µM
TGI (SF-539 CNS): 10.4 µM
GI50 (SK-MEL-2 melanoma): 2.02 µM
TGI (SK-MEL-2 melanoma): 3.89 µM
GI50 (SK-MEL-28 melanoma): 1.74 µM
TGI (SK-MEL-28 melanoma): 3.54 µM
GI50 (SK-MEL-5 melanoma): 1.56 µM
TGI (SK-MEL-5 melanoma): 2.94 µM
GI50 (SK-OV-3 ovarian): 2.68 µM
TGI (SK-OV-3 ovarian): 8.64 µM
GI50 (SN12C renal): 2.41 µM
TGI (SN12C renal): 12.6 µM
GI50 (SNB-19 CNS): 2.5 µM
TGI (SNB-19 CNS): 9.32 µM
GI50 (SNB-75 CNS): 1.62 µM
TGI (SNB-75 CNS): 5.42 µM
GI50 (SR leukemia): 1.55 µM
TGI (SR leukemia): 4.13 µM
GI50 (SW-620 colon): 1.11 µM
TGI (SW-620 colon): 6.53 µM
GI50 (T-47D breast): 2.73 µM
TGI (T-47D breast): 8.27 µM
GI50 (TK-10 renal): 1.87 µM
TGI (TK-10 renal): 5.51 µM
GI50 (U251 CNS): 1.98 µM
TGI (U251 CNS): 7.14 µM
GI50 (UACC-257 melanoma): 1.54 µM
TGI (UACC-257 melanoma): 3.3 µM
GI50 (UACC-62 melanoma): 1.6 µM
TGI (UACC-62 melanoma): 3.48 µM
GI50 (UO-31 renal): 1.28 µM
TGI (UO-31 renal): 2.8 µM
